Measurements reported in patent US6677492B2, “Fluoroether compositions and methods for inhibiting their degradation in the presence of a Lewis acid” (Abbott Laboratories, priority 1997, dated 2004).

Legend:
Assay type in all cases: physicochemical
[1] = Degradation of sevoflurane with activated alumina at three moisture levels, gas chromatography; settings: 50 mg aluminum oxide; 20, 100, 260 ppm water; 60° C., 22 hours; FIG. 1
Procedure: Type III glass consists mainly of silicon dioxide, calcium oxide, sodium oxide and aluminum oxide. Aluminum oxide is a known Lewis acid The glass matrix is normally inert to sevoflurane. However, under certain conditions (anhydrous, acidic), the glass surface can be attacked or altered, exposing sevoflurane to active Lewis acid sites such as aluminum oxide.
The effect of water on the degradation of sevoflurane was studied by adding various amounts of activated alumina to 20 ml of sevoflurane containing the following three levels of moisture: 1) 20 ppm water—measured water, no additional water added; 2) 100 ppm—spiked; and 3) 260 ppm water—spiked.
It will be appreciated that 20 ppm Water is equivalent to […] w/w Water. The samples were placed at 60° C. and analyzed by gas chromatography after 22 hours.

[2] = Degradation of sevoflurane in ampules by heat with and without added water; settings: Type I clear ampule autoclaved at 119° C. for three hours
Procedure: Approximately 20 mL of sevoflurane was added to a 50 mL Type I clear ampule and approximately 20 mL of sevoflurane and 1300 ppm of water was added to a second ampule. Both ampules were flame-sealed and then autoclaved at 119° C. for three hours. The contents of the two ampules were then analyzed by gas chromatography.

[3] = Degradation of sevoflurane in ampules, water-spiked studies (109 ppm to 951 ppm), autoclaved; settings: ampules in Set A and Set B, autoclaved at 119° C. for three hours
Procedure: Type I clear glass ampules were used to study the effect of various levels of water in inhibiting the degradation of sevoflurane. Approximately 20 mL of sevoflurane and different levels of water ranging from about 109 ppm to about 951 ppm were added to each ampule. The ampules were then sealed. A total of ten ampules were filled with sevoflurane and varying amounts of water. Five of the ampules were included in Set A and the other five ampules were included in Set B. The ampules were then autoclaved at 119° C. for three hours. Samples in Set A were placed on a mechanical shaker overnight to allow the moisture to coat the glass surface. Samples in Set B were prepared without equilibrating the water with the glass surface. Several control samples were also prepared. Two non-autoclaved ampules (Control Ampule 1 and Control Ampule 2) and a bottle (Control bottle) were each filled with 20 mL of sevoflurane. No water was added to any of the control samples. Also, the controls samples were not shaken overnight. The levels of hexafluoroisopropanol (HFIP) and total degradants (including methyleneglycol bishexafluoroisopropyl ether, dimethyleneglycol bishexafluoroisopropyl ether, methyleneglycol fluoromethyl hexafluoro isopropyl ether) were measured by gas chromatography.

[4] = Degradation of water-spiked sevoflurane in ampules at 60° C. or 40° C.
Procedure: Type I clear glass ampules were employed to study the effect of various levels of water and temperature in inhibiting the degradation of sevoflurane. Approximately 20 mL of sevoflurane and different levels of water ranging from about 109 ppm to about 951 ppm were added to each ampule. The ampules were then flame-sealed. To accelerate the degradation process, samples from each moisture level were placed at two heating conditions. Samples were placed on 60° C. stability station for 144 hours or placed on a 40° C. stability station for 200 hours. The resulting sevoflurane in each of the samples was analyzed by gas chromatography and pH. Hexafluoroisopropyl alcohol (HFIP) and the total degradants of sevoflurane were measured.

[5] = Sevoflurane degradation in activated Type III amber glass bottles, 20 ppm vs 400 ppm water
Procedure: The extent of the degradation of sevoflurane in each of the bottles from Example 5 were quantified by gas chromatography. The ten bottles were divided into two groups, the Control Sevo Group (containing bottles 2, 3, 5, 7, 8) and the Study Sevo Group (containing Bottles 1, 4, 6, 9, 10).
All ten bottles were re-rinsed several times with non-degraded sevoflurane containing about 20 ppm of water. For the five Control Sevo Group bottles, 100 mL of sevoflurane containing about 20 ppm of water was added to each bottle. For the five Study Group bottles, 100 mL of sevoflurane containing about 400 ppm of water (spiked) was added to each bottle.
Gas chromatography for all samples was performed at time zero and after heating at 50° C. for 18 hours. Hexafluoroisopropyl alcohol (HFIP), dimethyleneglycol bishexafluoroisopropyl ether (P2) and total degradants were measured.

[6] = Sevoflurane degradation in activated Type III amber glass bottles pre-treated with water-saturated sevoflurane; settings: activated glass surface treated with water saturated-sevoflurane prior to heating
Procedure: Sevoflurane was decanted from the five bottles of the Study Sevo Group from Example 6. Each bottle was rinsed thoroughly with fresh sevoflurane. Approximately 125 mL of water-saturated sevoflurane was then put into each bottle. The five bottles were then placed on a mechanical roller for approximately two hours to allow the water to coat the activated glass surfaces. The water-saturated sevoflurane was then drained form each bottle and replaced by 100 mL of sevoflurane containing 400 (spiked) ppm of water. Gas chromatography analysis for all samples was performed after heating at 50° C. for 18 hours, 36 hours, and 178 hours. bishexafluoroisopropyl ether (P2) and total degradants were measured.

degradation of sevoflurane ([2]; first ampule, no water added, FIG. 2): degraded
degradation of sevoflurane ([2]; second ampule, 1300 ppm of water, FIG. 3): did not degrade
water sufficient to inhibit the degradation of sevoflurane [3]: at least 595 ppm
water levels that inhibit degradation of sevoflurane ([4]; 40° C. for 200 hours): higher than 206 ppm
water levels that inhibit degradation of sevoflurane ([4]; 60° C. for 144 hours or longer): higher than 303 ppm
HFIP concentration ([5]; Study Sevo Group (400 ppm water)): quite high
amounts of degradants P2 and S1 ([5]; Study Sevo Group (400 ppm water) compared with Control Group (20 ppm water)): much less
degradation of sevoflurane ([5]; Study Sevo Group (400 ppm water), 50° C. for 18 hours): significantly reduced
degradation of sevoflurane (degradant S1) ([5]; addition of 400 ppm of water, activated amber glass bottles, Examples 5 and 6, FIG. 5): inhibited
degradation of sevoflurane (degradant P2) ([5]; addition of 400 ppm of water, activated type III amber glass bottles, Examples 5 and 6, FIG. 4): inhibited
degradation of sevoflurane ([5]; zero hour, compared to zero-hour results in Table 4): no significant degradation
degradation of sevoflurane [6]: greatly inhibited
SMILES: FCOC(C(F)(F)F)C(F)(F)F [sevoflurane, fluoromethyl-2,2,2-trifluoro-1-(trifuoromethyl)ethyl ether]
degradation of sevoflurane [1]: decreases with increasing amounts of water
